Eleven molecules from ChEMBL document CHEMBL1201862, “PubChem BioAssay data set” (2004) can be followed below.

Usually GI50 stands for the concentration at which growth is held to half of that of the control.

Holding throughout (experiment): DTP human tumour cell line panel, 48 h
The subject of experiment [1] is SNB-78.
Experiment [2] deals with OVCAR-3.
In experiment [3] the test system is LOX IMVI.
Experiment [4] has as its system SF-295.
Experiment [5] deals with OVCAR-5.
Experiment [6] concerns K562.
The test system of experiment [7] is Malme-3M.
Experiment [8] concerns SK-MEL-28.
For experiment [9], the system named is TK-10.
Experiment [10] concerns 786-0.
Experiment [11] has as its system NCI-H460.
Experiment [12] deals with SW-620.
The test system of experiment [13] is SNB-75.
Experiment [14] has as its system OVCAR-8.
For experiment [15], the system named is OVCAR-4.
In experiment [16] the test system is MDA-MB-231.
In experiment [17] the test system is RPMI-8226.
The test system of experiment [18] is MCF7.
Experiment [19] concerns BT-549.
In experiment [20] the test system is HOP-92.

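A five-concentration, 48-hour dose response in 96-well plates underlies each endpoint, interpolated linearly between surrounding concentrations. At the GI50, growth is halved.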 Calls of active or inactive are those of the source. Rule as the data show it: active = GI50 up to about 1.1 µM and inactive = higher.

For the molecule `CC(=O)Nc1ccc(C(=O)NN2C(=O)C(Cl)C2c2ccc(O)cc2)cc1` (stereo not given), the GI50 in experiment [1], in [2], in [3], in experiment [4], in experiment [5] and in experiment [6] was > 100 µM (inactive) each time. The GI50 in experiment [7] is > 100 µM (inactive); in [8], > 100 µM (inactive); in experiment [9] it was > 100 µM (inactive); in experiment [10], 72.4 µM (inactive); in [11] it was > 100 µM (inactive); in [12] it was > 100 µM (inactive). The GI50 in experiment [13] is > 100 µM (inactive); in experiment [14] it was 77.3 µM (inactive); in [15], > 100 µM (inactive).
On to `O=S(=O)(c1ccccc1)n1c(C(O)c2ccccc2)cc2ccccc21` (stereo not given), for which the GI50 in experiment [2] was 16.7 µM (inactive); in [3] it was 30.1 µM (inactive); in experiment [4], 16.9 µM (inactive); in experiment [5], 15.7 µM (inactive); in experiment [6], 49.4 µM (inactive); in experiment [7] it was 18.3 µM (inactive). The GI50 in [16] is 17.3 µM (inactive); in [17], > 100 µM (inactive); in experiment [8], 19.6 µM (inactive); in [9], 17.3 µM (inactive); in experiment [10] it was 14.1 µM (inactive); in experiment [11] it was 25.3 µM (inactive). Moreover, the GI50 in experiment [12] is 24 µM (inactive); in [18] it was 21.2 µM (inactive); in [13], 14.7 µM (inactive); in [14], 16.9 µM (inactive); in [19] it was 15.8 µM (inactive); in experiment [20] it was 12.7 µM (inactive). Also, the GI50 in [15] is 18.1 µM (inactive).
For `S=c1sc2nc(Cl)nc(Cl)c2s1`, the GI50 in [2] is 10.3 µM (inactive); in experiment [3], 9.14 µM (inactive); in experiment [4], 16.7 µM (inactive); in [5], 15.7 µM (inactive); in experiment [6] it was 4.24 µM (inactive); in experiment [7], 8.83 µM (inactive). For the same molecule, the GI50 is 9.02 µM (inactive) in [16]; 1.68 µM (inactive) in experiment [17]; 16.1 µM (inactive) in [8]; 13.6 µM (inactive) in [9]; 6.21 µM (inactive) in experiment [10]; 14.2 µM (inactive) in experiment [11]. Further, the GI50 in [12] is 6.85 µM (inactive); in experiment [18], 8.49 µM (inactive); in experiment [13], 17.3 µM (inactive); in [14], 9.33 µM (inactive); in experiment [19], 8.87 µM (inactive); in [20] it was 5.24 µM (inactive). For the same molecule, the GI50 in experiment [15] was 16.6 µM (inactive).
Regarding `Oc1ncc(Cl)c(O)n1`, the GI50 in experiment [2], in experiment [3], in experiment [4], in [5], in [6] and in [7] was > 100 µM (inactive) each time. The GI50 in experiment [16], in experiment [17], in experiment [8], in experiment [9], in experiment [10] and in [11] was > 100 µM (inactive) each time. Moreover, the GI50 in experiment [12], in experiment [18], in experiment [13], in experiment [14], in experiment [19] and in [20] was > 100 µM (inactive) each time. Moreover, in [15], the GI50 was > 100 µM (inactive).
Turning to `CCc1cc(Cc2ccc(C)c(NC(=O)C(=O)C3C(=O)NC(=O)NC3=O)c2CC)cc(C)c1NC(=O)C(=O)C1C(=O)NC(=O)NC1=O`, the GI50 in experiment [1], in experiment [2], in [3], in [5], in experiment [6] and in experiment [7] was > 100 µM (inactive) in each case. For the same molecule, the GI50 in experiment [17], in experiment [8], in [9], in [10], in experiment [11] and in [12] was > 100 µM (inactive) each time. Further, the GI50 in experiment [13] is 24.6 µM (inactive); in experiment [14], > 100 µM (inactive); in experiment [15] it was > 100 µM (inactive).
Consider `C=CCC(C)(C(=O)NCCC)C(=O)c1ccccc1O` (stereo not given), for which the GI50 in experiment [1], in [2], in experiment [6], in experiment [7], in experiment [17] and in [8] was > 100 µM (inactive) each time. Besides, the GI50 in [9], in experiment [10], in experiment [11], in [12], in [13] and in [14] was > 100 µM (inactive) each time. Further, the GI50 in experiment [15] is > 100 µM (inactive).
`COc1ccc(N2C(=O)C(C)SC2c2cc3cc(Br)ccc3nc2Cl)cc1` (stereo not given): the GI50 is 34.9 µM (inactive) in experiment [2]; 33 µM (inactive) in experiment [3]; 33.1 µM (inactive) in [4]; 57.9 µM (inactive) in experiment [5]; 31.3 µM (inactive) in experiment [6]; 82.4 µM (inactive) in [7]. Besides, the GI50 was 31.6 µM (inactive) in experiment [16]; 32.7 µM (inactive) in [17]; 38.1 µM (inactive) in experiment [8]; 38.6 µM (inactive) in [9]; 45.8 µM (inactive) in experiment [10]; 30.9 µM (inactive) in [11]. Also, the GI50 in experiment [12] is 30.4 µM (inactive); in [18], 33.2 µM (inactive); in experiment [13] it was 91 µM (inactive); in experiment [14], 37.5 µM (inactive); in [19], 24.9 µM (inactive); in experiment [20], 22.9 µM (inactive). Moreover, in experiment [15], the GI50 was 27.8 µM (inactive).
As to `O=c1cc(N2CCOCC2)oc2c(-c3ccccc3)cccc12` [LY-294002], the GI50 in experiment [2] was 7.16 µM (inactive); in [3] it was 3.72 µM (inactive); in experiment [4], 6.53 µM (inactive); in [5], 12.1 µM (inactive); in [6] it was 14.2 µM (inactive); in [7] it was 0.286 µM (active). The GI50 was 3.13 µM (inactive) in experiment [16]; 2.96 µM (inactive) in [17]; 16.9 µM (inactive) in [8]; 23.7 µM (inactive) in [9]; 9.68 µM (inactive) in experiment [10]; 11.4 µM (inactive) in [11]. Further, the GI50 in experiment [12] is 21.7 µM (inactive); in experiment [18] it was 3.09 µM (inactive); in [13], 1.11 µM (active); in [14] it was 4.58 µM (inactive); in [19] it was 5.7 µM (inactive); in [20], 9.04 µM (inactive). Further, the GI50 in experiment [15] is 2.7 µM (inactive).
Take `CC(=N/N=C/c1ccccn1)/C(C)=N/N=C(C)/C(C)=N/N=C(C)/C(C)=N/N=C(C)/C(C)=N\N=C\c1ccccn1`: the GI50 in experiment [2], in experiment [3], in experiment [4], in [5], in experiment [6] and in [7] was > 100 µM (inactive) in each case. Further, the GI50 in experiment [16], in [17], in experiment [8], in experiment [9], in [10] and in [11] was > 100 µM (inactive) each time. Further, the GI50 in experiment [12], in experiment [18], in experiment [13], in experiment [14], in experiment [19] and in experiment [20] was > 100 µM (inactive) each time. The GI50 in experiment [15] is > 100 µM (inactive).
On to `Cc1c2ncccc2cc2oc3ccccc3c(=O)c12`, for which the GI50 in experiment [2] was 33.9 µM (inactive); in experiment [3] it was 11.1 µM (inactive); in [4], 31.6 µM (inactive); in experiment [5], 16.1 µM (inactive); in experiment [6], 24.9 µM (inactive); in experiment [7] it was 68.4 µM (inactive). The GI50 in experiment [16] was 92 µM (inactive); in [17] it was > 100 µM (inactive); in [8] it was > 100 µM (inactive); in experiment [9], 91.4 µM (inactive); in experiment [10], > 100 µM (inactive); in [11] it was 5.46 µM (inactive). For the same molecule, the GI50 in [12] is 33.5 µM (inactive); in [18], 5.11 µM (inactive); in experiment [13], > 100 µM (inactive); in [14] it was 80.2 µM (inactive); in experiment [19] it was 55.8 µM (inactive); in experiment [20] it was 28.3 µM (inactive). Also, in experiment [15], the GI50 is 35.8 µM (inactive).
Consider `Cc1oc2c(c1C)S(=O)(=O)C(C#N)=C(c1ccccc1)N2`, for which the GI50 in [2] was > 100 µM (inactive); in experiment [3] it was > 100 µM (inactive); in experiment [4] it was > 100 µM (inactive); in experiment [5], > 100 µM (inactive); in experiment [6] it was > 100 µM (inactive); in experiment [7], 63.5 µM (inactive). In addition, the GI50 in [16], in [17], in experiment [8], in experiment [9], in experiment [10] and in experiment [11] was > 100 µM (inactive) in each case. Moreover, the GI50 in [12], in experiment [18], in experiment [13], in experiment [14], in experiment [19] and in experiment [20] was > 100 µM (inactive) each time. Moreover, the GI50 in experiment [15] is > 100 µM (inactive).
